The text below walks through data of ChEMBL document CHEMBL1201862, “PubChem BioAssay data set” (2004).

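Growth conditions: 96-well plates. Treatment: test compound, 48 hours, 5 concentrations. Analysis: linear interpolation between bracketing concentrations; unreached endpoints set to highest concentration. Abbreviation: GI50, concentration required for 50% inhibition of growth.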 The source made the active and inactive calls. No stated cut-off is given here; in the data, active = GI50 up to about 1.1 µM and inactive = higher.

Among the test systems are NCI-H226; DMS-273; NCI-H460; NCI-H522; SK-OV-3; HCC 2998; EKVX; OVCAR-8; SN12C; HL-60; SNB-75; KM12; SK-MEL-28; HCT-15; SK-MEL-5; A498; NCI/ADR-RES; DU-145; MDA-MB-435; MCF7.
Common to all, as to assay: NCI tumour cell line growth inhibition, 48 h

Regarding `CC(C)CCS(=O)(=O)OCCCCOS(=O)(=O)CCC(C)C`, the GI50 in the assay on NCI-H226, with DMS-273, in the assay with NCI-H460, in the assay on NCI-H522, in the assay with SK-OV-3 and with HCC 2998 was > 100 µM (inactive) in each case. Also, the GI50 in the assay with EKVX, in the assay on OVCAR-8, in the assay on SN12C, in the assay with HL-60, in the assay on SNB-75 and in the assay on KM12 was > 100 µM (inactive) each time. The GI50 with SK-MEL-28 is > 100 µM (inactive); in the assay with HCT-15, over 100 µM.
Regarding `CCOC(=O)c1cnc2sc3ccc4ccccc4c3n2c1=O`, the GI50 with NCI-H226 is 30.1 µM (inactive); in the assay with DMS-273 it was 95.5 µM (inactive); in the assay on SK-MEL-5, 32.1 µM (inactive); with NCI-H460, > 100 µM (inactive); in the assay on SK-OV-3 it was 78.5 µM (inactive); in the assay on HCC 2998, > 100 µM (inactive). Moreover, the GI50 is 74 µM (inactive) with EKVX; 48.6 µM (inactive) with OVCAR-8; 39.3 µM (inactive) with SN12C; 21.2 µM (inactive) in the assay with HL-60; > 100 µM (inactive) in the assay on SNB-75; 68.4 µM (inactive) with KM12. Also, the GI50 is 98.6 µM (inactive) in the assay with SK-MEL-28 and 46.3 µM with HCT-15.
Turning to `O=C1OC(c2ccccc2)=N/C1=C\c1c(O)cc(O)cc1O`, the GI50 in the assay with DMS-273 is 94.2 µM (inactive); with SK-MEL-5, > 100 µM (inactive); in the assay with NCI-H522, 47.2 µM (inactive); with SK-OV-3 it was > 100 µM (inactive); in the assay on EKVX it was > 100 µM (inactive); in the assay with OVCAR-8, > 100 µM (inactive). Moreover, the GI50 was > 100 µM (inactive) in the assay with SN12C; > 100 µM (inactive) in the assay on SNB-75; > 100 µM (inactive) in the assay with KM12; > 100 µM (inactive) in the assay with SK-MEL-28; > 100 µM (inactive) in the assay with A498; 38 µM in the assay on HCT-15.
Consider `c1ccc(C2=NOC3(c4ccccc4)SC4CCCCC4CN23)cc1` (stereo unspecified), for which the GI50 in the assay on NCI-H226 was 36.6 µM (inactive); in the assay with DMS-273, 32.6 µM (inactive); with SK-MEL-5, 15.2 µM (inactive); in the assay with NCI-H460, 32.6 µM (inactive); in the assay with NCI-H522 it was 9.42 µM (inactive); in the assay with SK-OV-3 it was 77.4 µM (inactive). The GI50 is 55.1 µM (inactive) in the assay on HCC 2998; 57.9 µM (inactive) with EKVX; 52.5 µM (inactive) with SN12C; 5.4 µM (inactive) with HL-60; 18.2 µM (inactive) with SNB-75; 25.5 µM (inactive) in the assay on KM12. Also, the GI50 with SK-MEL-28 is 89.1 µM (inactive); in the assay with A498, 35.5 µM (inactive); with HCT-15 it was 26.7 µM.
In the case of `O=[N+]([O-])c1ccc2nc(/C(=N\Nc3ccccc3)C(O)c3ccc4c(c3)OCO4)c(O)nc2c1` (stereo unspecified), the GI50 was > 100 µM (inactive) with NCI-H226; 37.7 µM (inactive) in the assay with DMS-273; > 100 µM (inactive) in the assay on SK-MEL-5; > 100 µM (inactive) in the assay with NCI-H460; 39 µM (inactive) in the assay with NCI-H522; > 100 µM (inactive) in the assay on SK-OV-3. For the same molecule, the GI50 was 75.2 µM (inactive) in the assay with HCC 2998; > 100 µM (inactive) in the assay with EKVX; > 100 µM (inactive) in the assay on OVCAR-8; > 100 µM (inactive) in the assay on SN12C; 52.1 µM (inactive) with HL-60; 60 µM (inactive) in the assay with SNB-75. In addition, the GI50 in the assay with KM12 is 41.6 µM (inactive); with SK-MEL-28 it was > 100 µM (inactive); in the assay with HCT-15, 20.7 µM.
On to `NNC(=O)/C(NC(=O)c1ccccc1)=C(\N)c1ccc(Cl)cc1`, for which the GI50 with NCI-H226 was > 100 µM (inactive); in the assay with DMS-273 it was > 100 µM (inactive); in the assay with SK-MEL-5, > 100 µM (inactive); with NCI-H460 it was > 100 µM (inactive); with NCI-H522, 61.1 µM (inactive); in the assay with SK-OV-3 it was > 100 µM (inactive). The GI50 with HCC 2998, with EKVX, in the assay with OVCAR-8, in the assay on SN12C, in the assay on HL-60 and with SNB-75 was > 100 µM (inactive) in each case. Also, the GI50 was > 100 µM (inactive) in the assay on KM12, > 100 µM (inactive) with SK-MEL-28, 80.5 µM (inactive) with A498 and over 100 µM in the assay on HCT-15.
Regarding `COc1cc(/C=C/C(=O)c2cccc3ccccc23)cc(OC)c1OC`, the GI50 with NCI-H226 is 15.3 µM (inactive); with DMS-273 it was 3.59 µM (inactive); in the assay with SK-MEL-5, 10.4 µM (inactive); in the assay on NCI-H460, 3.78 µM (inactive); in the assay with NCI-H522, 4.68 µM (inactive); with SK-OV-3, 15.2 µM (inactive). The GI50 in the assay on HCC 2998 is 15 µM (inactive); in the assay on EKVX, 15 µM (inactive); with OVCAR-8 it was 1.98 µM (inactive); with SN12C, 3.39 µM (inactive); with HL-60, 1.72 µM (inactive); in the assay with SNB-75, 10.3 µM (inactive). Moreover, the GI50 is 4.06 µM (inactive) with KM12, 6.24 µM (inactive) with SK-MEL-28 and 2.82 µM (inactive) in the assay with A498.
`CC1=C2[C@H](c3ccccc3)C3C=CC2(c2ccccc23)N(C(=O)C(c2ccccc2)c2ccccc2)C1=O` (stereo partly specified): the GI50 in the assay on DMS-273, with SK-MEL-5, in the assay with NCI-H460, in the assay on SK-OV-3, in the assay with HCC 2998 and in the assay with EKVX was > 100 µM (inactive) in each case. Moreover, the GI50 is > 100 µM (inactive) in the assay on OVCAR-8; > 100 µM (inactive) in the assay on SN12C; 41.3 µM (inactive) with HL-60; > 100 µM (inactive) with SNB-75; > 100 µM (inactive) in the assay on KM12; > 100 µM (inactive) in the assay on SK-MEL-28. For the same molecule, the GI50 is > 100 µM (inactive) with A498 and over 100 µM with HCT-15.
For the molecule `O=C1CCC(=O)C(C(=O)CCC(=O)Nc2ccc(Cl)cc2)C1` (stereo unspecified), the GI50 with NCI-H226, with DMS-273, with SK-MEL-5, in the assay with NCI-H460, with NCI-H522 and with SK-OV-3 was > 100 µM (inactive) each time. Also, the GI50 in the assay on HCC 2998, in the assay on EKVX, in the assay on OVCAR-8, with SN12C, in the assay on HL-60 and with KM12 was > 100 µM (inactive) in each case. In addition, the GI50 in the assay with A498 was > 100 µM (inactive); in the assay on HCT-15 it was over 100 µM.
For `Cc1c(C2Cc3ccccc3N2C(=O)/C=C\C(=O)O)c2ccccc2n1C` (stereo unspecified), the GI50 with NCI-H226 was 20.2 µM (inactive); in the assay with DMS-273, 34.8 µM (inactive); with SK-MEL-5, 18.2 µM (inactive); with NCI-H460, > 100 µM (inactive); with NCI-H522 it was 19.2 µM (inactive); in the assay on SK-OV-3, 23.4 µM (inactive). For the same molecule, the GI50 in the assay on HCC 2998 is 21.4 µM (inactive); in the assay on EKVX, 30.2 µM (inactive); in the assay with OVCAR-8, 18.5 µM (inactive); with SN12C, 19.5 µM (inactive); in the assay with HL-60, 18.1 µM (inactive); in the assay on SNB-75, 21.8 µM (inactive). In addition, the GI50 with KM12 is 18.4 µM (inactive); in the assay with A498, 18 µM (inactive); in the assay on HCT-15 it was over 100 µM.
As for `C[n+]1ccc(/C2=C3\C=CC(=N3)/C(c3cc[n+](C)cc3)=c3/cc/c([nH]3)=C(\c3cc[n+](C)cc3)C3=N/C(=C(/c4cc[n+](C)cc4)C4C=CC2N4)C=C3)cc1`, the GI50 in the assay on NCI-H226 was > 75.7 µM (inactive); in the assay with NCI/ADR-RES, > 100 µM (inactive); in the assay with DU-145, > 100 µM (inactive); in the assay on MDA-MB-435, > 61.7 µM (inactive); with SK-MEL-5 it was 43 µM (inactive); in the assay with NCI-H460, 32.9 µM (inactive). Also, the GI50 was > 100 µM (inactive) with NCI-H522; > 85.3 µM (inactive) with SK-OV-3; 84.7 µM (inactive) in the assay on HCC 2998; > 100 µM (inactive) with EKVX; > 100 µM (inactive) in the assay with MCF7; > 100 µM (inactive) in the assay with OVCAR-8. Further, the GI50 in the assay on SN12C is > 100 µM (inactive); in the assay on HL-60, > 100 µM (inactive); in the assay with SNB-75 it was 51.1 µM (inactive); with KM12 it was 35.9 µM (inactive); in the assay on SK-MEL-28 it was > 100 µM (inactive); in the assay with A498, > 100 µM (inactive). For the same molecule, the GI50 with HCT-15 was over 100 µM.
Turning to `COC(=O)C(C)(/N=C/c1ccccc1)c1ccccc1` (stereo unspecified), the GI50 in the assay with NCI-H226, in the assay on NCI/ADR-RES, in the assay on DU-145, in the assay on MDA-MB-435, in the assay on SK-MEL-5 and in the assay on NCI-H460 was > 100 µM (inactive) each time. In addition, the GI50 in the assay with NCI-H522, in the assay on SK-OV-3, in the assay with HCC 2998, in the assay on EKVX, with MCF7 and in the assay on OVCAR-8 was > 100 µM (inactive) each time. The GI50 with SN12C, in the assay on HL-60, in the assay with SNB-75, in the assay on KM12, with SK-MEL-28 and with A498 was > 100 µM (inactive) each time. In addition, the GI50 in the assay on HCT-15 was over 100 µM.
`CSc1nnnc2ccccc12`: the GI50 in the assay on NCI-H226, with NCI/ADR-RES, in the assay with DU-145, in the assay with MDA-MB-435, in the assay with SK-MEL-5 and in the assay on NCI-H460 was > 100 µM (inactive) throughout. In addition, the GI50 is > 100 µM (inactive) in the assay on NCI-H522; > 100 µM (inactive) in the assay with SK-OV-3; > 100 µM (inactive) in the assay on HCC 2998; > 100 µM (inactive) in the assay with EKVX; 51.4 µM (inactive) in the assay with MCF7; > 100 µM (inactive) with OVCAR-8. Besides, the GI50 with SN12C, with HL-60, in the assay on SNB-75, in the assay on KM12, with SK-MEL-28 and with A498 was > 100 µM (inactive) in each case. The same molecule showed a GI50 with HCT-15 of over 100 µM.
